For 24 molecules, IC50 results are on record in patent US9815842B2, “Pyrazolo pyrimidine derivatives and their use as MALT1 inhibitors” (Novartis AG, priority 2014, dated 2017).

Each structure is given as a SMILES string.

Assay [1] has as its target C-domain of MALT1 (amino acids 329-824) (Homo sapiens (Human), UniProt Q9UDY8). In words: MALT1 biochemical assay (fluorescence lifetime enzyme activity assay). The settings on record: 60 min pre-incubation, 2.5 nM enzyme, 1 μM peptide substrate.
A further assay relates to Human IL2 promoter. The assay can be described thus: Human IL2 promoter reporter gene assay (RGA) in Jurkat cells. The settings on record: Jurkat clone K22 290_H23, anti-CD28 mAb + PMA stimulation 5.5 h. It counts as cell-based. The gist of the method: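 Transfected Jurkat clone K22 290_H23 cells were pre-incubated with compounds 30 min at 37 °C, then stimulated 5.5 h with anti-CD28 mAb (15E8, 3 μg/ml) plus PMA (1 μg/ml). IL2-promoter reporter activity was read as BriteLitePlus bioluminescence.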

Assay [2] has as its target cIAP2-MALT1 fusion protein (Homo sapiens, UniProt Q9UDY8). In words: cell-based.

Chain of cIAP2-MALT1 fusion protein (Q9UDY8 2-824 limits assumed): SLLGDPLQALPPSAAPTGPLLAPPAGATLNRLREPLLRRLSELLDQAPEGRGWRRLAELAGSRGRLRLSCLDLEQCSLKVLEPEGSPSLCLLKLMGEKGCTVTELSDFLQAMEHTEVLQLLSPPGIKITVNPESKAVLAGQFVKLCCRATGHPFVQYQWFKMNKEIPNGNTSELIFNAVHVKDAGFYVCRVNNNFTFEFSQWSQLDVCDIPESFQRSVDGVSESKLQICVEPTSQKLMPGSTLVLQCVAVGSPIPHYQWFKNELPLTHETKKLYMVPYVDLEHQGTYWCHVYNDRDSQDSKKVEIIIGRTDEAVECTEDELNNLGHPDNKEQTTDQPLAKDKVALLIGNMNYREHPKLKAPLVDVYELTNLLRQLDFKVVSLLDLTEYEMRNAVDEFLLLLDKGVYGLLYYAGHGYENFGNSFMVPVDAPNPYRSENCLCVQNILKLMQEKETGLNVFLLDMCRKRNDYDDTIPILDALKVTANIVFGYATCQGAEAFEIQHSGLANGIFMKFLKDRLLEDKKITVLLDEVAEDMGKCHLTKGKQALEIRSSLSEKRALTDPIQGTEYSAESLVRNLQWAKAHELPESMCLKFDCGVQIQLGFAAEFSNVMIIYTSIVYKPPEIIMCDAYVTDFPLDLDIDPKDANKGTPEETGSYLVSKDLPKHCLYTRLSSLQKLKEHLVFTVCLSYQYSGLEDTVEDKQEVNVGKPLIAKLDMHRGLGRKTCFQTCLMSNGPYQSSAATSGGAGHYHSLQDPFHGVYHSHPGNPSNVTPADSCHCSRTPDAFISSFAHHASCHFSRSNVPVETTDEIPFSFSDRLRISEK
Chain of C-domain of MALT1 (amino acids 329-824) (Q9UDY8 329-824): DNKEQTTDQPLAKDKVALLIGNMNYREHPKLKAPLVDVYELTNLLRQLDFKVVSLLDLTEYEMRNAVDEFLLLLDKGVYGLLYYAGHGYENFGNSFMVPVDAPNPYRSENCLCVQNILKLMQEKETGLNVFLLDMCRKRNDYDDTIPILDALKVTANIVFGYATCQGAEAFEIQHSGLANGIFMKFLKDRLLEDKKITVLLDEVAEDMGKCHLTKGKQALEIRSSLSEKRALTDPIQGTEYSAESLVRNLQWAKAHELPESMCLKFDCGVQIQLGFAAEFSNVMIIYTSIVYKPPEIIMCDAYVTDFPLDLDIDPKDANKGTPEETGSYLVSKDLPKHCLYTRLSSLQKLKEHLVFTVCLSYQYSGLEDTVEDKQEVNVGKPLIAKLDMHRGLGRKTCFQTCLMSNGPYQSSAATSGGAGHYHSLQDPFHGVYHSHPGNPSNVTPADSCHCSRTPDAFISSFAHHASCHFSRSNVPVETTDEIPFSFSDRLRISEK

Usually IC50 stands for the concentration at which inhibition is half-maximal. Turning to `CC(C)c1c(NC(=O)Nc2ccc(-n3nccn3)c(Cl)c2)cnc2cc(Cl)nn12` [Example 20, 1-(3-chloro-4-(2H-1,2,3-triazol-2-yl)phenyl)-3-(2-chloro-7-isopropylpyrazolo[1,5-a]pyrimidin-6-yl)urea], the results for the IC50 (in assay [1]; with Human IL2 promoter; in assay [2]) were 3 nM, 245 nM and 99 nM, respectively.
For `Cc1cnn(-c2ncc(NC(=O)Nc3cnc4cc(Cl)nn4c3C(C)C)cc2Cl)n1` [Example 22, 1-(5-chloro-6-(4-methyl-2H-1,2,3-triazol-2-yl)pyridin-3-yl)-3-(2-chloro-7-isopropylpyrazolo[1,5-a]pyrimidin-6-yl)urea] the same measures were 4 nM, 100 nM and 74 nM.
For `CC(C)c1c(NC(=O)Nc2cc(Cl)c(=O)n(C)c2-n2cccn2)cnc2cc(Cl)nn12` [Example 24, 1-(5-chloro-1-methyl-6-oxo-2-(1H-pyrazol-1-yl)-1,6-dihydropyridin-3-yl)-3-(2-chloro-7-isopropylpyrazolo[1,5-a]pyrimidin-6-yl)urea] the same measures were 5 nM, 214 nM and 131 nM.
In the same order, the values of `CC(C)c1c(NC(=O)Nc2cncc(Br)c2)cnc2cc(Cl)nn12` [Example 26, 1-(5-bromopyridin-3-yl)-3-(2-chloro-7-isopropylpyrazolo[1,5-a]pyrimidin-6-yl)urea] are 5 nM, 134 nM and 85 nM.
Take `CC(C)c1c(NC(=O)Nc2cnc(N3CCCS3(=O)=O)c(C(F)(F)F)c2)cnc2cc(Cl)nn12` [Example 27, 1-(2-chloro-7-isopropylpyrazolo[1,5-a]pyrimidin-6-yl)-3-(6-(1,1-dioxidoisothiazolidin-2-yl)-5-(trifluoromethyl)pyridin-3-yl)urea]: the results for the IC50 (in assay [1]; in the assay on Human IL2 promoter; in assay [2]) were 6 nM, 248 nM and 54 nM, respectively.
In the same order, the values of `CC(C)c1c(NC(=O)Nc2cc(Cl)c(-n3nccn3)c(Cl)c2)cnc2cc(Cl)nn12` [Example 30, 1-(2-chloro-7-isopropylpyrazolo[1,5-a]pyrimidin-6-yl)-3-(3,5-dichloro-4-(2H-1,2,3-triazol-2-yl)phenyl)urea] are 3 nM, 507 nM and 382 nM.
Regarding `CC(C)c1c(NC(=O)Nc2cc(C(F)(F)F)cn(C)c2=O)cnc2cc(Cl)nn12` [Example 32, 1-(2-chloro-7-isopropylpyrazolo[1,5-a]pyrimidin-6-yl)-3-(1-methyl-2-oxo-5-(trifluoromethyl)-1,2-dihydropyridin-3-yl)urea], the concentration for half-maximal inhibition (IC50) amounted to 19 nM in assay [1], 221 nM with Human IL2 promoter and 214 nM in assay [2].
In the same order, the values of `O=C(Nc1cnc(-n2nccn2)c(Cl)c1)Nc1cnc2cc(Cl)nn2c1C1CCC1` [Example 38, 1-(5-chloro-6-(2H-1,2,3-triazol-2-yl)pyridin-3-yl)-3-(2-chloro-7-cyclobutylpyrazolo[1,5-a]pyrimidin-6-yl)urea] are 5 nM, 145 nM and 176 nM.
As for `COCCO[C@@H](C)c1c(NC(=O)Nc2cnc(OC)c(Cl)c2)cnc2cc(Cl)nn12` [Example 40, (S)-1-(5-chloro-6-methoxypyridin-3-yl)-3-(2-chloro-7-(1-(2-methoxyethoxy)ethyl)pyrazolo[1,5-a]pyrimidin-6-yl)urea], the results for the IC50 (in assay [1]; in the assay with Human IL2 promoter; in assay [2]) were 6 nM, 43 nM and 112 nM, respectively.
Turning to `COCC(OC)c1c(NC(=O)Nc2cnc(-n3nccn3)c(Cl)c2)cnc2cc(Cl)nn12` (stereo not drawn) [Example 56, 1-(5-chloro-6-(2H-1,2,3-triazol-2-yl)pyridin-3-yl)-3-(2-chloro-7-(1,2-dimethoxyethyl)pyrazolo[1,5-a]pyrimidin-6-yl)urea], the results for the half-inhibitory concentration (IC50) (in assay [1]; with Human IL2 promoter; in assay [2]) were 5 nM, 95 nM and 131 nM, respectively.
For `Cc1c(NC(=O)Nc2cnc(-n3nccn3)c(Cl)c2)cnc2cc(Cl)nn12` [Example 62, 1-(5-chloro-6-(2H-1,2,3-triazol-2-yl)pyridin-3-yl)-3-(2-chloro-7-methylpyrazolo[1,5-a]pyrimidin-6-yl)urea] the same measures were 42 nM, 266 nM and 345 nM.
In the same order, the values of `CO[C@@H](C)c1c(NC(=O)Nc2cnc(-n3nccn3)c(Cl)c2)cnc2cc(C)nn12` [Example 71, (S)-1-(5-chloro-6-(2H-1,2,3-triazol-2-yl)pyridin-3-yl)-3-(7-(1-methoxyethyl)-2-methylpyrazolo[1,5-a]pyrimidin-6-yl)urea] are 5 nM, 14 nM and 79 nM.
For the molecule `Cc1cc2ncc(NC(=O)Nc3cnc(-n4nccn4)c(Cl)c3)c(C3(C)CC3)n2n1` [Example 72, 1-(5-chloro-6-(2H-1,2,3-triazol-2-yl)pyridin-3-yl)-3-(2-methyl-7-(1-methylcyclopropyl)pyrazolo[1,5-a]pyrimidin-6-yl)urea], the IC50 stood at 3 nM in assay [1], 140 nM with Human IL2 promoter and 179 nM in assay [2].
In the same order, the values of `COc1ncc(NC(=O)Nc2cnc3cc(C)nn3c2C2(C)CC2)cc1Cl` [Example 73, 1-(5-chloro-6-methoxypyridin-3-yl)-3-(2-methyl-7-(1-methylcyclopropyl)pyrazolo[1,5-a]pyrimidin-6-yl)urea] are 12 nM, 91 nM and 163 nM.
Regarding `CO[C@H](c1c(NC(=O)Nc2cnc(-n3nccn3)c(Cl)c2)cnc2cc(Cl)nn12)C(C)C` [Example 74, (S)-1-(5-chloro-6-(2H-1,2,3-triazol-2-yl)pyridin-3-yl)-3-(2-chloro-7-(1-methoxy-2-methylpropyl)pyrazolo[1,5-a]pyrimidin-6-yl)urea], the IC50 in assay [1] worked out at 2 nM; with Human IL2 promoter, 32 nM; in assay [2], 30 nM.
In the same order, the values of `CO[C@H](c1c(NC(=O)Nc2ccnc(C(F)(F)F)c2)cnc2cc(Cl)nn12)C(C)C` [Example 75, (S)-1-(2-chloro-7-(1-methoxy-2-methylpropyl)pyrazolo[1,5-a]pyrimidin-6-yl)-3-(2-(trifluoromethyl)pyridin-4-yl)urea] are 5 nM, 72 nM and 100 nM.
For `COCC1(c2c(NC(=O)Nc3cnc(-n4nccn4)c(Cl)c3)cnc3cc(Cl)nn23)CC1` [Example 76, 1-(5-chloro-6-(2H-1,2,3-triazol-2-yl)pyridin-3-yl)-3-(2-chloro-7-(1-(methoxymethyl)cyclopropyl)pyrazolo[1,5-a]pyrimidin-6-yl)urea], the 50% inhibitory concentration (IC50) in assay [1] is 6 nM; in the assay on Human IL2 promoter, 28 nM; in assay [2], 84 nM.
As to `COCC1(c2c(NC(=O)Nc3cnc(-n4nccn4)c(Cl)c3)cnc3cc(C)nn23)CC1` [Example 78, 1-(5-chloro-6-(2H-1,2,3-triazol-2-yl)pyridin-3-yl)-3-(7-(1-(methoxymethyl)cyclopropyl)-2-methylpyrazolo[1,5-a]pyrimidin-6-yl)urea], the IC50 in assay [1] amounted to 21 nM; with Human IL2 promoter it was 76 nM; in assay [2] it was 159 nM.
In the same order, the values of `COCC1(c2c(NC(=O)Nc3ccnc(C(F)(F)F)c3)cnc3cc(C)nn23)CC1` [Example 79, 1-(7-(1-(methoxymethyl)cyclopropyl)-2-methylpyrazolo[1,5-a]pyrimidin-6-yl)-3-(2-(trifluoromethyl)pyridin-4-yl)urea] are 45 nM, 206 nM and 408 nM.
Take `COCC(C)(OC)c1c(NC(=O)Nc2cnc(-n3nccn3)c(Cl)c2)cnc2cc(Cl)nn12` (stereo not drawn) [Example 81, 1-(5-chloro-6-(2H-1,2,3-triazol-2-yl)pyridin-3-yl)-3-(2-chloro-7-(1,2-dimethoxypropan-2-y)pyrazolo[1,5-a]pyrimidin-6-yl)urea]: the IC50 in assay [1] was found to be 5 nM; in the assay with Human IL2 promoter, 63 nM; in assay [2], 95 nM.
In the same order, the values of `CN(C)C1(c2c(NC(=O)Nc3cnc(-n4nccn4)c(Cl)c3)cnc3cc(Cl)nn23)CC1` [Example 88, 1-(5-chloro-6-(2H-1,2,3-triazol-2-yl)pyridin-3-yl)-3-(2-chloro-7-(1-(dimethylamino)cyclopropyl)pyrazolo[1,5-a]pyrimidin-6-yl)urea] are 14 nM, 47 nM and 102 nM.
As for `COC(c1c(NC(=O)Nc2ccnc(C(F)(F)F)c2)cnc2cc(Cl)nn12)C1CCOCC1` (stereo not drawn) [Example 90, 1-(2-chloro-7-(methoxy(tetrahydro-2H-pyran-4-yl)methyl)pyrazolo[1,5-a]pyrimidin-6-yl)-3-(2-(trifluoromethyl)pyridin-4-yl)urea], the IC50 in assay [1] was determined as 97 nM; with Human IL2 promoter, 927 nM; in assay [2] it was 696 nM.
In the same order, the values of `COCC1(c2c(NC(=O)Nc3cnc(-n4nccn4)c(Cl)c3)cnc3cc(Cl)nn23)CCCO1` (stereo not drawn) [Example 91, 1-(5-chloro-6-(2H-1,2,3-triazol-2-yl)pyridin-3-yl)-3-(2-chloro-7-(2-(methoxymethyl)tetrahydrofuran-2-yl)pyrazolo[1,5-a]pyrimidin-6-yl)urea] are 2 nM, 89 nM and 105 nM.
For `CC(C)c1c(NC(=O)Nc2cnc(-n3cc(CN)cn3)c(Cl)c2)cnc2cc(Cl)nn12` [Example 118, 1-(6-(4-(aminomethyl)-1H-pyrazol-1-yl)-5-chloropyridin-3-yl)-3-(2-chloro-7-isopropylpyrazolo[1,5-a]pyrimidin-6-yl)urea] the same measures were 28 nM, 112 nM and 256 nM.
